In patent US20190029987A1, “DIMETHYL FUMARATE (DMF) FOR PREVENTION OR TREATMENT OF GOUT, ACNE, DIABETES, VITILIGO AND/OR PYODERMA GANGRENOSUM” (UNIVERSITAT ZURICH, priority 2016, published 2019):

Columns and labels:
[1] = tested on: Nrf2; experiment: Nrf2 stabilisation and nuclear accumulation in human primary keratinocytes (Western blot); format: cell-based; conditions: HPKs, 10 μM, FIG. 6E,F; for expression of the other Nrf2 complex proteins Keap1, Cul3, and Rbx1: 1 h; for stabilisation and nuclear accumulation of Nrf2 protein: harvested after 1 h
Method: Human primary keratinocytes (HPKs) constitutively express pro-IL-1β and inflammasome proteins.
FIG. 6: Bone marrow (BM) cells were isolated from Nrf2-deficient mice and wt litterfnates and differentiated into dendritic cells (DCs). (A, B) After priming with upLPS overnight, BMDCs were treated with the NLRP3 inflammasome activators nigericin (20 μM), zymosan (20 μg/ml), MSU (150 μg/ml), ATP (5 mM) or transfected with poly(dA:dT) (1 μg/ml) for activation of the AIM2 inflammasome. After 6 h, supernatants were analysed for secretion of IL-1β by (A) ELISA or (B) Western blot. Mock-treated but primed BMDCs were analysed for expression of inflammasome proteins and pro-IL-1β at the (C) mRNA level by qRT-PCR or at the (D) protein level by Western blot. (B, D) Duplicates from two individual mice per genotype are shown (biological replicates). (E-G) HPKs were treated with the Nrf2 activators SFN (10 μM), tBHQ (10 μM), DMF (50 μM) and 15d-PGJ2 (10 μM). After 1 h, the cells were harvested and analysed for expression of the indicated proteins using total cell lysates (E) or cytoplasmic and nuclear lysates (F). Western blots for the nuclear protein lamin NC and the cytoplasmic protein α-tubulin served as controls. Specific bands are marked with an asterisk. (G) Total RNA was isolated after 8 h and qRT-PCR was performed for quantification of expression of the Nrf2 target genes glutamate-cysteine ligase, catalytic subunit (GCLC), glutamate-cysteine ligase, modifier subunit (GCLM), and NAD(P)H dehydrogenase, quinone 1 (N001). (A-G) Representative experiments performed at least three times are shown. […] Mann-Whitney test was performed. […] Mann-Whitney test was performed. *P≤0.05

[2] = biological target: T1, NLRP3 inflammasome (Homo sapiens, UniProt Q96P20); experiment: Nigericin-induced IL-1β secretion in human PBMCs (ELISA); format: cell-based; conditions: 10 μM 1 h before nigericin (5 μM), 5 h, FIG. 2C
T1 construct: endogenous in cells
Description: To determine the effects of Nrf2 activating compounds on inflammasome activation, the inventors treated keratinocytes with different doses of SFN, tBHQ, DMF or 15d-PGJ2 and irradiated the cells with UVB.
SFN, DMF, 15d-PGJ2, tBHQ, zymosan, ATP, poly(dA:dT), cycloheximide, puromycin, and doxycycline were purchased from Sigma (Munich, Germany), nigericin from Enzo Life Sciences (New York, US-NY), MG132 from Calbiochem (Darmstadt, Germany), and blasticidin from Invivogen (Toulouse, France). Release of IL-1p was determined by ELISA according the instructions of the manufacturer (R&D Systems, Minneapolis, US-MN). MSU crystals were prepared by crystallisation of a supersaturated solution of uric acid under mildly basic conditions. Briefly, uric acid was added to a solution of NaOH, the solution was boiled until the uric acid was dissolved and passed through a filter. NaCl was added and crystallisation was performed at 4° C. Crystals were filtered, then dried using a speedvac, weighted and autoclaved.
(A) HPKs were treated with the indicated concentrations of the Nrf2 activating compound tBHQ irradiated with UVB 30 min later and harvested after 5 h. ELISA measurements were performed for quantification of IL-1β secretion and Western blots for analysis of expression and activation of the indicated proteins. Specific bands are marked with an asterisk. (B) THP-1 cells were differentiated with PMA (27 nM) for 3 d, primed with upLPS (100 ng/ml) overnight, and 1 h before inflammasome activation (5 μM nigericin, 150 μg/ml MSU) treated with SFN (10 μM), 15-PGJ2 (10 μM) or DMF (50 μM) (15-PG: 15-PGJ2). Cells and supernatants were harvested after 5 h and analysed for inflammasome activation by ELISA measurement of IL-1p and Western blots as indicated. (C) Freshly isolated PBMCs from human blood were primed overnight with upLPS (100 ng/ml) and treated with SFN (10 μM), tBHQ (10 μM), DMF (50 μM) or 15-PGJ2 (10 μM) 1 h before inflammasome activation by nigericin (5 μM). ELISA measurement for secretion of IL-1β as readout for inflammasome activation was performed after 5 h. (D) HPKs or (E) differentiated and primed THP-1 cells were pretreated with cycloheximide (CHX, 30 μg/ml) to block protein synthesis for 1 h before SFN (10 μM) was added to the cells and after an additional hour the inflammasome was activated by (D) irradiation with UVB or (E) treatment with nigericin (5 μM). Cells and supernatants were harvested after (D) 6 h or (E) 3.5 h and analysed for inflammasome activation by Western blot as indicated. (A-E) Representative experiments performed at least three times are shown. Statistics: (A-C) Error bars represent the mean±SD of a representative experiment performed in triplicates. One-way ANOVA was performed. **P≤0.01; ***P≤0.001.

[3] = tested on: THP-1 cells; experiment: Pyroptosis in inflammasome activated THP-1 cells (LDH release); format: cell-based, human; conditions: THP-1, 10 μM 30 min before nigericin, 2.5 h, FIG. 8D
Method: To determine the effects of Nrf2 activating compounds on inflammasome activation, the inventors treated keratinocytes with different doses of SFN, tBHQ, DMF or 15d-PGJ2 and irradiated the cells with UVB. […] As the Nrf2 activators were added to the cells only 15 to 30 min prior to inflammasome activation, it is unlikely that Nrf2 target genes are involved in inflammasome inhibition.
Supernatants were harvested and after centrifugation (400×g) used for analysis. Cells were lysed in culture medium with 2% Triton X-100 for 10 min, LDH activity was determined according to the manufacturer (Cytotox 96 nonradioactive cytotoxicity assay, Promega, Madison, US-WC).
FIG. 8: (A-C) HPKs were treated with the Nrf2 activating compounds (A) SFN, (B) DMF, and (C) 15d-PGJ2, irradiated with UVB 30 min later and harvested after 5 h. Analogous experiment as described in FIG. 2A for tBHQ. (D) THP-1 cells were differentiated with TPA for 3 d and primed with LPS overnight. Then, cells were treated with the solvent DMSO, SFN (10 μM) or 15-PGJ2 (10 μM). After 30 min the inflammasome was activated by nigericin treatment and cells and supernatants were harvested after 2.5 h. Western blots showing prolL-1β and mature IL-1p in the lysate and supernatant. […] IL-1β was quantified in the supernatant by ELISA and cytotoxicity by LDH release.

[4] = tested on: Monosodium urate (MSU) crystal-induced peritonitis; conditions: mice, high concentrations injected into the peritoneum; cited from earlier work

T1 sequence (Q96P20 whole entry): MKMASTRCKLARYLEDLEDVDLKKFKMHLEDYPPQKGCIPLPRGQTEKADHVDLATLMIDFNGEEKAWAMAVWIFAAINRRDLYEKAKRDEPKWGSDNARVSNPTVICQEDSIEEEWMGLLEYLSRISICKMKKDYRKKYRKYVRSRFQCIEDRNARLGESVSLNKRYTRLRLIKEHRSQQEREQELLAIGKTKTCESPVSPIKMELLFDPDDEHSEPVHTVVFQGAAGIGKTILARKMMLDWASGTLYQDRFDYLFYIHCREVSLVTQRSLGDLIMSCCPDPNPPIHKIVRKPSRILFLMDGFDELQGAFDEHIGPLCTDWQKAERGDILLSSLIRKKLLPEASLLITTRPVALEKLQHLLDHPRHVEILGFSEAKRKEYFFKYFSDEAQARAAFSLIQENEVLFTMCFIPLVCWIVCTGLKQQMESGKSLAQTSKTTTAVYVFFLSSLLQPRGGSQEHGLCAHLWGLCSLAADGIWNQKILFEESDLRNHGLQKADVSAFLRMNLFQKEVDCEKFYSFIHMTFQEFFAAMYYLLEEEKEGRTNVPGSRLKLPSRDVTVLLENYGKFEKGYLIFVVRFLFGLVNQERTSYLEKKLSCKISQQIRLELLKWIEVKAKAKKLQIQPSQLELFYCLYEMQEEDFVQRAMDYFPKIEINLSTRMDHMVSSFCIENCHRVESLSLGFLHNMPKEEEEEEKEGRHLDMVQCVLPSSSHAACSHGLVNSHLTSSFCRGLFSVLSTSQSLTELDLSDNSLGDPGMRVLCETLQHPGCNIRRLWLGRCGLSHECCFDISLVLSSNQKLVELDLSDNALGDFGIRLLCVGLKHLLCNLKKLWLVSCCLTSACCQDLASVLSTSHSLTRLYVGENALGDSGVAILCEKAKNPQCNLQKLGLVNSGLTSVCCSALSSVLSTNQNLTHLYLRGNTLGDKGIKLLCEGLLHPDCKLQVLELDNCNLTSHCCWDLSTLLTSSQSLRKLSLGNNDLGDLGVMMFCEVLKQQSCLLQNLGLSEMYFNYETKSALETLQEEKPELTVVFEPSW

SMILES | expression of the other Nrf2 complex proteins Keap1, Cul3, and Rbx1 [1] | stabilisation and nuclear accumulation of Nrf2 protein [1] | IL-1β secretion [2] | pyroptosis (release of lactate dehydrogenase) [3] | inflammasome activation and MSU-induced peritonitis [4]
CCCCCC=CC=C1C(=O)C=CC1CC=CCCCC(=O)O [15d-PGJ2, 15-deoxy-D-prostaglandin J2] | not affected | fast and robust stabilisation and nuclear accumulation of Nrf2 protein | inhibited IL-1β secretion | strongly inhibited pyroptosis | blocked inflammasome activation and reduced MSU-induced peritonitis
C[S+]([O-])CCCCN=C=S (stereo not shown) [SFN, sulforaphane] | not affected | fast and robust stabilisation and nuclear accumulation of Nrf2 protein | inhibited IL-1β secretion | strongly inhibited pyroptosis | blocked inflammasome activation and reduced MSU-induced peritonitis
